According to the NIST ThermoML archive (doi:10.1016/j.jct.2018.12.023):
± gives the expanded uncertainty stated by the source. Each block holds one compound with its values, some of them ahead of it.

Settings: Liquid, Ebulliometric method (Recirculating still)

vapor or sublimation pressure (351.45 K): 101.3 ± 1.6 kPa
SMILES: CCO [ethanol]

vapor or sublimation pressure (372.25 K): 101.3 ± 1.6 kPa
SMILES: CCOC(=O)CC [ethyl propanoate]

SMILES: CCI [iodoethane]
vapor or sublimation pressure (345.5 K): 101.3 ± 1.6 kPa

vapor or sublimation pressure (414.32 K): 101.3 ± 1.6 kPa
SMILES: CCC(=O)O [propanoic acid]
